{"source": "patent US10662146B2", "about": "“Prodrugs of fencamfamine” (Praxis Bioresearch, LLC, priority 2015, dated 2020)", "key": {"[1]": {"test": "Single dose intravenous PK study in male Sprague Dawley rats (plasma by LC-MS/MS)", "assay_type": "in vivo", "protocol": "We describe here PK results of prodrugs of PRX-002 (−) or (+) isomers. All doses of prodrugs were administered such that they were equivalent to 5 mg/kg of PRX-002 (−) or (+) for oral studies and 2 mg/kg PRX-002 (−) or (+) for intravenous studies in male Sprague-Dawley (MSD) rats. Higher doses of up to 10 or 15 mg/kg [again equivalent to PRX-002 (−)] were used in some studies (as specified)]. Formulation preparation, dose administration and time of sample collection was as follows.\n(§1) Adult male Sprague Dawley Rats aged 8-10 weeks were used for the study. Animals were administered the test item by Intravenous bolus route with a dose of 2 mg/kg body weight at dose volume of 5.0 mL/kg body weight. Under mild isoflurane anesthesia, blood specimens were collected by retro-orbital puncture method using capillary tubes into pre-labeled tubes containing anticoagulant (K2EDTA-2 mg/mL blood) during the next 24 hours of post dose as mentioned in below table. For blood sampling at multiple time points, right and left eyes were used alternatively for blood collection. Collected blood specimens were centrifuged at 4000 rpm, 4° C. for 10 minutes and plasma were separated and stored at −80° C. until analysis.\nBlood was collected as outlined in Table 39.2 (IV).\nTest item PRX-P4-003 was weighed and transferred to a graduated tube. Then 600 μL of PEG 400 (v/v) was added and vortex mixed thoroughly until the test item was completely dissolved. Then 1.800 mL of Hydroxypropyl-β-cyclodextrin (HPβCD, 50% w/v) was added and vortex mixed thoroughly. The final volume was then made up to 3.600 mL with sterile water for injection (SWFI, v/v) with final formulation strength of 5.16 mgA/mL. […] This formulation was freshly prepared before the administration to animals.\nas §1, with “administered with a PRX-P4-003” for “administered the test item”, “of 10” for “of 2”, “of 5” for “of 5.0”\nTest item PRX-P5-006 was weighed and transferred to a graduated tube. Then 500 μL of DMSO (v/v) was added vortex mixed thoroughly until the test item was completely dissolved. Then 4000 μL of Hydroxypropyl-β-cyclodextrin (HPβCD, 50% w/v) was added and vortex mixed thoroughly. Then 2500 μL of PEG 400 (v/v) was added and vortex mixed thoroughly. The final volume was then made up to 10000 μL with sterile water for injection (SWFI, v/v) with final formulation strength of 3.97 mg/mL. […] This formulation was freshly prepared before the administration to animals.\nas §1, with “administered with a PRX-P5-006” for “administered the test item”, “of 15” for “of 2”, “of 10” for “of 5.0”\nThe plasma concentrations of fencamfamine were measured by LC-MS/MS over time. […] The release of fencamfamine from the prodrugs varied depending on the chain length of the fatty acid linkers attached to fencamfamine. […]"}, "[2]": {"system": "spontaneous locomotor activity", "test": "Spontaneous locomotor activity (sLMA), intravenous administration", "assay_type": "in vivo, Male SD rats", "conditions": "i.v. 25.8 mg/kg, equivalent to 10 mg/kg of PRX-002 (−), 90 min recording, vs vehicle", "protocol": "Male SD rats were intravenously administered with PRX-002(−) (2 mg/kg) and prodrug PRX-P4-003 [(25.8 mg/kg, equivalent to 10 mg/kg of PRX-002 (−)], and vehicle just before sLMA test.\nVehicle was: 10% PEG 400 (v/v)+30% (v/v) of (50% w/v) Hydroxypropyl-ß-cyclodextrin in water+60% (v/v) sterile water for injection (SWFI): 1 ml/kg volume.\nPRX-P4-003 solution was: 25.8 mg/ml PRX-P4-003 (25.8 mg/kg: equivalent to 10 mg/ml active drug, i.v. @volume of 1 ml/kg). 42.3 mg PRX-P4-003 was added to vehicle 1.639 ml, vortexed for 30 min under room temperature to get a uniform suspension solution, suspension solution was continuously stirred during dosage.\nThe PRX-P4-002(−) solution was: 2 mg/ml PRX-P4-002(−) (2 mg/kg, i.v.@volume of 1 ml/kg). 4.5 mg PRX-002(−) was added to 2.25 ml Vehicle, vortexed for 30 min under room temperature to get a clear solution, the solution was continuously stirred during dosage.\nRat was placed at the center of test chamber for the 90 min sLMA video recording. (n=3/group)."}}, "note": "“Also recorded” adds a separate entry of the source. Where two headings read alike, the source gives them in different places.", "data": [{"smiles": "CCCCCCCCCCCCCCCCCC(=O)OCOC(=O)N(CC)C1C2CCC(C2)C1c1ccccc1", "note": "(single isomer, unassigned) [PRX-P4-003, N-(Octadecanoyloxymethoxycarbonyl)-(−)-N-ethyl-3-phenylbicyclo[2.2.1]heptan-2-amine]", "values": [{"measurement": "Plasma concentration of PRX-P4-003", "setting": "[1]; PRX-P4-003 IV 2 mg/kg b.w., 0.08 h, mean", "result": 171.96}, {"measurement": "Plasma concentration of PRX-P4-003", "setting": "[1]; PRX-P4-003 IV 2 mg/kg b.w., 0.25 h, mean", "result": 47.94}, {"measurement": "Plasma concentration of PRX-P4-003", "setting": "[1]; PRX-P4-003 IV 2 mg/kg b.w., 0.50 h, mean", "result": 26.73}, {"measurement": "Plasma concentration of PRX-P4-003", "setting": "[1]; PRX-P4-003 IV 2 mg/kg b.w., 1.00 h, mean", "result": 20.03}, {"measurement": "Plasma concentration of PRX-P4-003", "setting": "[1]; PRX-P4-003 IV 2 mg/kg b.w., 2.00 h, mean", "result": 18.29}, {"measurement": "Plasma concentration of PRX-P4-003", "setting": "[1]; PRX-P4-003 IV 2 mg/kg b.w., 4.00 h, mean", "result": 14.23}, {"measurement": "Plasma concentration of PRX-P4-003", "setting": "[1]; PRX-P4-003 IV 2 mg/kg b.w., 6.00 h, mean", "result": 10.72}, {"measurement": "Plasma concentration of PRX-P4-003", "setting": "[1]; PRX-P4-003 IV 2 mg/kg b.w., 24.00 h, mean", "result": 0.00}, {"measurement": "AUC% extrap of PRX-P4-003", "setting": "[1]; PRX-P4-003 IV 2 mg/kg, mean", "result": "32.475 ± 83.3890", "unit": "%"}, {"measurement": "Plasma concentration of PRX-P4-003", "setting": "[1]; PRX-P4-003 IV 10 mg/kg b.w., 0.08 h, mean", "result": 199.64}, {"measurement": "Plasma concentration of PRX-P4-003", "setting": "[1]; PRX-P4-003 IV 10 mg/kg b.w., 0.25 h, mean", "result": 27.98}, {"measurement": "Plasma concentration of PRX-P4-003", "setting": "[1]; PRX-P4-003 IV 10 mg/kg b.w., 0.50 h, mean", "result": 8.96}, {"measurement": "Plasma concentration of PRX-P4-003", "setting": "[1]; PRX-P4-003 IV 10 mg/kg b.w., 1.00 h, mean", "result": 0.00}, {"measurement": "Plasma concentration of PRX-P4-003", "setting": "[1]; PRX-P4-003 IV 10 mg/kg b.w., 2.00 h, mean", "result": 0.00}, {"measurement": "Plasma concentration of PRX-P4-003", "setting": "[1]; PRX-P4-003 IV 10 mg/kg b.w., 4.00 h, mean", "result": 0.00}, {"measurement": "Plasma concentration of PRX-P4-003", "setting": "[1]; PRX-P4-003 IV 10 mg/kg b.w., 6.00 h, mean", "result": 0.00}, {"measurement": "Plasma concentration of PRX-P4-003", "setting": "[1]; PRX-P4-003 IV 10 mg/kg b.w., 24.00 h, mean", "result": 0.00}, {"measurement": "Conversion of pro-drug form to active form PRX-002(−) isomer in plasma", "setting": "[1]; PRX-P4-003 IV administration (FIG. 2)", "result": "minimal amounts"}, {"measurement": "Amount of parent PRX-002 (−) generated", "setting": "[1]; PRX-P4-003 IV, even at higher dose of 10 mg/kg (FIG. 3)", "result": "very limited amount"}, {"measurement": "Cmax", "setting": "[1]; male, Sprague Dawley, rat, plasma, iv, 2 mg/kg, IV 2 mg/kg [equivalent to PRX-002 (−)], analyte: prodrug in plasma, mean, read-out: IV PK Parameters Cmax, Prodrug", "result": "172 ± 62.6", "unit": "ng/mL"}, {"measurement": "AUC", "setting": "[1]; male, Sprague Dawley, rat, IV 2 mg/kg [equivalent to PRX-002 (−)], analyte: prodrug in plasma, mean, read-out: IV PK Parameters AUC, Prodrug", "result": "133 ± 32.5", "unit": "ng·h/mL"}, {"measurement": "Tmax", "setting": "[1]; male, Sprague Dawley, rat, IV 2 mg/kg [equivalent to PRX-002 (−)], analyte: prodrug in plasma, mean, read-out: IV PK Parameters Tmax, Prodrug", "result": 4.8, "unit": "min"}, {"measurement": "AUC(0-inf)", "setting": "[1]; male, Sprague-Dawley, rat, plasma, iv, 2 mg/kg, PRX-P4-003 IV 2 mg/kg, mean, read-out: AUCinf of PRX-P4-003", "result": "216 ± 83.4", "unit": "ng·h/mL"}, {"measurement": "AUC(0-t)", "setting": "[1]; male, Sprague-Dawley, rat, plasma, iv, 2 mg/kg, PRX-P4-003 IV 2 mg/kg, mean, read-out: AUClast of PRX-P4-003", "result": "133 ± 32.5", "unit": "ng·h/mL"}, {"measurement": "clearance", "setting": "[1]; male, Sprague-Dawley, rat, plasma, iv, 2 mg/kg, PRX-P4-003 IV 2 mg/kg, mean, read-out: CL of PRX-P4-003", "result": "172 ± 69.3", "unit": "mL/min/kg"}, {"measurement": "Cmax", "setting": "[1]; male, Sprague-Dawley, rat, plasma, iv, 2 mg/kg, PRX-P4-003 IV 2 mg/kg, mean, read-out: Cmax of PRX-P4-003", "result": "172 ± 62.6", "unit": "ng/mL"}, {"measurement": "MRT last", "setting": "[1]; male, Sprague-Dawley, rat, plasma, iv, 2 mg/kg, PRX-P4-003 IV 2 mg/kg, mean, read-out: MRTlast of PRX-P4-003", "result": "1.84 ± 0.713", "unit": "h"}, {"measurement": "half-life", "setting": "[1]; male, Sprague-Dawley, rat, plasma, iv, 2 mg/kg, PRX-P4-003 IV 2 mg/kg, mean, read-out: T1/2 of PRX-P4-003 (converted)", "result": "201 ± 131", "unit": "min"}, {"measurement": "Vd", "setting": "[1]; male, Sprague-Dawley, rat, plasma, iv, 2 mg/kg, PRX-P4-003 IV 2 mg/kg, mean, read-out: Vss of PRX-P4-003", "result": "42 ± 19.9", "unit": "L/kg"}, {"measurement": "Tmax", "setting": "[1]; male, Sprague-Dawley, rat, plasma, PRX-P4-003 IV 2 mg/kg, mean, read-out: Tmax of PRX-P4-003", "result": 4.8, "unit": "min"}, {"measurement": "Spontaneous locomotor activity (sLMA): total traveling distance and duration", "setting": "[2]", "result": "no increase in sLMA; also recorded: practically no change"}]}, {"smiles": "CCN[C@H]1[C@H]2CC[C@H](C2)[C@@H]1c1ccccc1", "note": "[PRX-002 (+) Isomer, (1S,2S,3R,4R)—N-Ethyl-3-phenylbicyclo[2.2.1]heptan-2-amine, reference compound]", "values": [{"measurement": "AUC(0-inf)", "setting": "[1]; male, Sprague Dawley, rat, plasma, iv, 2 mg/kg, single IV dose 2 mg/kg b.w., mean plasma PK parameters (Table 39.27), read-out: AUCinf", "result": "268 ± 23.5", "unit": "ng·h/mL"}, {"measurement": "AUC(0-t)", "setting": "[1]; male, Sprague Dawley, rat, plasma, iv, 2 mg/kg, single IV dose 2 mg/kg b.w., mean plasma PK parameters (Table 39.27), read-out: AUClast", "result": "250 ± 15.2", "unit": "ng·h/mL"}, {"measurement": "C0", "setting": "[1]; male, Sprague Dawley, rat, plasma, iv, 2 mg/kg, single IV dose 2 mg/kg b.w., mean plasma PK parameters (Table 39.27), read-out: C0", "result": "291 ± 61.8", "unit": "ng/mL"}, {"measurement": "clearance", "setting": "[1]; male, Sprague Dawley, rat, plasma, iv, 2 mg/kg, single IV dose 2 mg/kg b.w., mean plasma PK parameters (Table 39.27), read-out: CL", "result": "125 ± 10.6", "unit": "mL/min/kg"}, {"measurement": "Cmax", "setting": "[1]; male, Sprague Dawley, rat, plasma, iv, 2 mg/kg, single IV dose 2 mg/kg b.w., mean plasma PK parameters (Table 39.27), read-out: Cmax", "result": "234 ± 37.9", "unit": "ng/mL"}, {"measurement": "MRT last", "setting": "[1]; male, Sprague Dawley, rat, plasma, iv, 2 mg/kg, single IV dose 2 mg/kg b.w., mean plasma PK parameters (Table 39.27), read-out: MRTlast", "result": "1.05 ± 0.071", "unit": "h"}, {"measurement": "half-life", "setting": "[1]; male, Sprague Dawley, rat, plasma, iv, 2 mg/kg, single IV dose 2 mg/kg b.w., mean plasma PK parameters (Table 39.27), read-out: T1/2 (converted)", "result": "64.9 ± 9.12", "unit": "min"}, {"measurement": "Vd", "setting": "[1]; male, Sprague Dawley, rat, plasma, iv, 2 mg/kg, single IV dose 2 mg/kg b.w., mean plasma PK parameters (Table 39.27), read-out: Vss", "result": "10.1 ± 0.51", "unit": "L/kg"}, {"measurement": "Tmax", "setting": "[1]; male, Sprague Dawley, rat, single IV dose 2 mg/kg b.w., mean plasma PK parameters (Table 39.27), read-out: Tmax", "result": 4.8, "unit": "min"}, {"measurement": "AUCextrap", "setting": "[1]; single IV dose 2 mg/kg b.w., mean plasma PK parameters (Table 39.27)", "result": "6.639 ± 2.427", "unit": "%"}]}]}
